Laboratory results taken from patent US12178875B2, “Lymphatic system-directing lipid prodrugs” (Seaport Therapeutics, Inc., priority 2017, dated 2024).

Columns and labels:
[1] = Lymphatic transport assay in mesenteric lymph-duct cannulated rats; type: in vivo, rat; settings: total MPA related compound, intraduodenal infusion, anaesthetised mesenteric lymph-duct cannulated rats; class symbols
Procedure: In order to assess the lymphatic transport of disclosed lipid prodrugs in rats, the mesenteric lymph ducts of the rats used in this study were cannulated to allow continual collection of mesenteric lymph. Lipid formulations containing the compound of interest were then administered to the animals, lymph was collected, and drug concentrations in the lymph samples were quantified.
Lipid-based formulations of the compounds of the invention or control compounds were prepared as previously described (Trevaskis, N. L. et al., Pharmaceutical Research, 2005, 22(11), 1863-1870, WO 2016/023082, and WO 2017/041139, hereby incorporated by reference.
In brief, either 1 or 2 mg of test prodrug, 40 mg oleic acid and 25 mg Tween 80 were mixed in a glass vial and incubated at 37° C. for 12-18 h to equilibrate. An aqueous phase consisting of 5.6 ml phosphate buffered saline (PBS, pH 7.4) was subsequently added to the lipid phase (MPA was dissolved in PBS for the preparation of MPA containing formulations) and the formulation emulsified by ultrasonication with a Misonix XL 2020 ultrasonic processor (Misonix, Farmingdale, NY, USA) equipped with a 3.2-mm microprobe tip running at 30% of the maximal amplitude of […] and a frequency of 20 kHz for 2 min at room temperature. Doses for administering to more than one animal can be prepared in one batch by suitably increasing the quantities given above. Drug/prodrug concentrations in all formulations were verified using HPLC-MS.
Male Sprague-Dawley (SD) rats were selected for the lymphatic transport studies involving mycophenolic acid lipid prodrugs. Depending on the therapeutic agent, male, female, or both may be selected for study. Rats (typically 240-320 g) were maintained on a standard diet and fasted overnight with free access to water prior to experiments.
Anesthetized rats were placed on a heated pad at 37° C. and cannulas inserted into the duodenum (for formulation administration and rehydration), mesenteric lymph duct (for lymph collection), and carotid artery (in cases where blood collection was conducted). Post-surgery, rats were re-hydrated for 0.5 h via intraduodenal infusion of normal saline at 2.8 mL/h. […] The collection tubes were changed hourly and lymph flow was measured gravimetrically. […]
Drug concentration in lymph is expressed as total drug and includes free drug and drug associated with different glycerides. […]
Transport of compounds into lymph during each hourly collection period was calculated from the product of the volume of lymph collected and the measured concentrations in lymph. For fluorescently-labelled compounds such as a BDP-conjugate, the concentrations of total compound may be measured by fluorescence spectroscopy without hydrolysis. […]

[2] = In vitro release of therapeutic agent from prodrugs in plasma supplemented with lipoprotein lipase; type: in vitro ADME, rat
Procedure: The percentage of MPA released at 60 minutes in LPL-supplemented rat plasma was also determined for selected compounds. […] The designation “**” indicates a release % of >25% to 50%. The designation “***” indicates a release % of >50% to 75%. The designation “****” indicates a release % of >75%.
In order to probe the release of free drug from TG prodrugs in the systemic circulation, prodrugs were incubated with plasma (rat, mouse, dog, pig or human) supplemented with lipoprotein lipase (LPL, 200 IU/ml). LPL is a key enzyme required for the hydrolysis of lipoprotein associated TG in the systemic circulation and is therefore expected to be a key contributor to lipolysis of the re-esterified drug-TG construct in plasma, largely via liberation of fatty acids in the sn-1 and the sn-3 position of the TG-mimetic, prior to drug release from the 2′ position via esterase hydrolysis. LPL is […] is tethered to the luminal surface of vascular endothelial cells under physiological conditions. In the current in vitro studies, plasma was therefore supplemented with LPL to better reflect the in vivo situation. To start hydrolysis, 10 μl of LPL solution (10,000 IU/ml) was added to a mixture of 10 μl of prodrug solution (1 mg/ml dissolved in acetonitrile) and 500 μl of blank plasma. The mixture was incubated at 37° C. Samples (20 μl) of the incubation solution were taken at 0, 5, 15, 30, 60, 90, 120 and 180 minutes post-incubation and added to 180 μl of MeCN to stop lipolysis. The mixture was vortexed and centrifuged at 4500×g for 5 minutes to precipitate proteins prior to analysis. The supernatant was analyzed by HPLC-MS/MS for the potential products (MG form, acid form, and free drug) of prodrug hydrolysis.
To assess the stability and release profile of compounds of the present invention, compounds TAC-I-18 and TAC-I-20 were incubated with rat plasma and the concentrations of compounds, parent drug tacrolimus, and acid were monitored by LCMS for about three hours.

[3] = mice, oral, multiple dose study: 2 times daily for 2 days, samples on the 3rd day (FIG. 8A/8B)
Procedure: This experiment included a single and multiple dose study. In the multiple dose study, dosing of either free MPA or MPA-2-TG (MPA-I-34, structure below) 2 times daily was performed for 2 days followed by collecting samples from mesenteric or peripheral lymph nodes on the 3rd day after dosing.
The concentrations of free MPA were measured for both groups of mice.

[4] = rat plasma supplemented with LPL, 180 min (FIG. 9, FIG. 10)

CCCCCCCCCCCCCCCC(=O)OCC(COC(=O)CCCCCCCCCCCCCCC)OC(=O)CCCCCC(=O)Oc1c(C/C=C(\C)CCC(=O)OC)c(OC)c(C)c2c1C(=O)OC2 [MPA-I-19]
Cumulative lymphatic transport % dose (Mean ± SD, or Range if n = 2) [1]: A (greater than 10% (>10%)) | Percentage MPA release at 60 min in LPL supplemented rat plasma ([2]; 60 min, n = 3 unless specified otherwise): **** (a release % of >75%)

CCCCCCCCCCCCCCCC(=O)OCC(COC(=O)CCCCCCCCCCCCCCC)OC(=O)CC(C)CCCCCCCC(C)C(=O)Oc1c(C/C=C(\C)CCC(=O)OC)c(OC)c(C)c2c1C(=O)OC2 (stereo not drawn) [MPA-I-20]
monoglyceride (MG) peak after 180 min [2, 4]: almost completely disappeared

CCCCCCCCCCCCCCCC(=O)OCC(COC(=O)CCCCCCCCCCCCCCC)OC(=O)CC(C)CCCCCCCC(C)C(=O)OCCCCC(=O)Oc1c(C/C=C(\C)CCC(=O)OC)c(OC)c(C)c2c1C(=O)OC2 (stereo not drawn) [MPA-I-22, (E)-12-(1,3-Bis(palmitoyloxy)propan-2-yl) 1-(5-((6-methoxy-5-(6-methoxy-3-methyl-6-oxohex-2-en-1-yl)-7-methyl-3-oxo-1,3-dihydroisobenzofuran-4-yl)oxy)-5-oxopentyl) 2,10-dimethyldodecanedioate]
MPA released after 180 min [2, 4]: about 80% | monoglyceride (MG) peak after 180 min [2, 4]: almost completely disappeared

CCCCCCCCCCCCCCCC(=O)OCC(COP(=O)([O-])OCC[N+](C)(C)C)OC(=O)CC/C(C)=C/Cc1c(O)c2c(c(C)c1OC)COC2=O (stereo not drawn) [MPA-I-39]
Cumulative lymphatic transport % dose (Mean ± SD, or Range if n = 2) [1]: C (less than 1% and greater than 0.24% (<1% and >0.24%))

CCCCCCCCCCCCCCCC(=O)OCC(COC(=O)CCCCCCCCCCCCCCC)OC(=O)COC(=O)CC/C(C)=C/Cc1c(O)c2c(c(C)c1OC)COC2=O [MPA-I-46]
Cumulative lymphatic transport % dose (Mean ± SD, or Range if n = 2) [1]: A (greater than 10% (>10%))

CCCCCCCCCCCCCCCC(=O)OCC(COC(=O)CCCCCCCCCCCCCCC)OC(=O)CC(C)COC(=O)CC/C(C)=C/Cc1c(O)c2c(c(C)c1OC)COC2=O (stereo not drawn) [MPA-I-50]
Cumulative lymphatic transport % dose (Mean ± SD, or Range if n = 2) [1]: A (greater than 10% (>10%))

CCCCCCCCCCCCCCCC(=O)OCC(COC(=O)CCCCCCCCCCCCCCC)OC(=O)CC/C(C)=C/Cc1c(O)c2c(c(C)c1OC)COC2=O [MPA-TG]
concentrations of free MPA in mesenteric lymph nodes compared with MPA [3]: Much higher concentrations
